# Results: patent publication US10183938B2, “Geminal substituted quinuclidine amide compounds as agonists of α-7 nicotonic acetylcholine receptors” (AXOVANT SCIENCES GMBH, priority 2014, dated 2019)
# Where a name gives a salt, the structure may show the parent alone.
# Target: human α7 nAChRs transiently expressed in Xenopus laevis oocytes (Homo sapiens (Human), UniProt P36544)
# Test: Oocyte electrophysiology screen (TEVC)
# Assay type: cell-based
# Conditions: 0.01 mM test compound, peak current relative to 0.2 mM ACh
# Procedure: Oocyte Electrophysiology Screen (% ACh @ 10 μM Oocyte)
# The Oocyte Electrophysiology Screen studies were performed under contract by HiQScreen Geneva, Switzerland. All experiments were carried out at human α7 nAChRs transiently expressed in Xenopus laevis oocytes using the method of cDNA expression. Currents evoked by acetylcholine or other agonist ligands were recorded using the standard two-electrode voltage-clamp configuration (TEVC). X. laevis oocytes were prepared and injected using standard procedures. Briefly, ovaries were harvested from X. laevis females that were deeply anesthetized and pithed following the animal rights rule from the Geneva canton. A small piece of ovary was isolated for immediate preparation while the remaining part was placed at 4° C. in a sterile Barth solution containing in mM: NaCl 88, KCl 1, NaHCO3 2.4, HEPES 10, MgSO4.7H2O 0.82, Ca(NO3)2.4H2O 0.33, CaCl2.6H2O 0.41, at pH 7.4, and supplemented with 20 μg/mL of kanamycin, 100 unit/mL penicillin and 100 μg/mL streptomycin. […] Cells were held at −80 mV. Data were filtered at 10 Hz, captured at 100 Hz and analyzed using proprietary data acquisition and analysis software running under Matlab (Mathworks Inc.).
# Experimental Protocol and Analysis
# After establishing a baseline transmembrane current, acetylcholine (ACh) was applied for 5 seconds at a concentration of 0.2 mM to establish a control ACh-evoked current response. Following a wash period of 90 s in OR2 medium (free of ACh), cells were then exposed for 30 s to the test compound applied at 0.01 mM. The same reference ACh test pulse was immediately given at the end of the compound exposure and again after 90 s of recovery in OR2 Medium (free of ACh or test compound). All data were determined in triplicate. The response evoked by the test compound was expressed as a percentage of that evoked by ACh: Response (% ACh)=100×(Itest/IACh) where Itest is the peak inward current measured during exposure to 0.01 mM of test compound and IACh is the peak inward current measured in the presence of ACh.
# human α7 nAChRs transiently expressed in Xenopus laevis oocytes, sequence (P36544 23-502 limits assumed): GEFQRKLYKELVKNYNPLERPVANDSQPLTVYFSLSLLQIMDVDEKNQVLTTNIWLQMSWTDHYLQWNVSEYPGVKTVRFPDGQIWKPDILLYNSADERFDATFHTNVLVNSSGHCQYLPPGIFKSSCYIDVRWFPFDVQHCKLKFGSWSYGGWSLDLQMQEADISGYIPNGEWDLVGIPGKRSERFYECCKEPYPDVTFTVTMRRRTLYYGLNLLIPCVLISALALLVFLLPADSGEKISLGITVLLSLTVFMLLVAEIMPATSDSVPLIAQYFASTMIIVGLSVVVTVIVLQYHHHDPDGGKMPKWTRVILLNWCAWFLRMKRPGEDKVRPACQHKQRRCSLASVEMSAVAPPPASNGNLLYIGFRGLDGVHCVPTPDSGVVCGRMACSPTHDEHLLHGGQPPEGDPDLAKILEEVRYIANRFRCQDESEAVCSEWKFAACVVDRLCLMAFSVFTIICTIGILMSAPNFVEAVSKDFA
row,Compound,% ACh @ 10 μM Oocyte
1,"CC1(C)[C@H](NC(=O)c2ccc3oc(Cl)cc3c2)C2CCN1CC2 [(R)-39, (R)-2-chloro-N-(2,2-dimethylquinuclidin-3-yl)benzofuran-5-carboxamide hydrochloride]",697 % ACh
2,"Cc1coc2ccc(C(=O)N[C@@H]3C4CCN(CC4)C3(C)C)cc12 [(R)-40, (R)—N-(2,2-dimethylquinuclidin-3-yl)-3-methylbenzofuran-5-carboxamide hydrochloride]",517 % ACh
3,"CC1(C)[C@H](NC(=O)c2ccc3occ(Cl)c3c2)C2CCN1CC2 [(R)-41, (R)-3-chloro-N-(2,2-dimethylquinuclidin-3-yl)benzofuran-5-carboxamide hydrochloride]",384 % ACh
4,"Cn1cnc2cc(C(=O)N[C@@H]3C4CCN(CC4)C3(C)C)ccc21 [(R)-42, (R)—N-(2,2-dimethylquinuclidin-3-yl)-1-methyl-1H-benzo[d]imidazole-5-carboxamide hydrochloride]",0 % ACh
5,"CC1(C)[C@H](NC(=O)c2cc3ccc(N4CCOCC4)cc3s2)C2CCN1CC2 [(R)-44, (R)—N-(2,2-dimethylquinuclidin-3-yl)-6-morpholinobenzo[b]thiophene-2-carboxamide hydrochloride]",1 % ACh
6,"CC1(C)[C@H](NC(=O)c2cc3ccc(N4CCC(F)(F)CC4)cc3s2)C2CCN1CC2 [(R)-45, (R)-6-(4,4-difluoropiperidin-1-yl)-N-(2,2-dimethylquinuclidin-3-yl)benzo[b]thiophene-2-carboxamide hydrochloride]",1 % ACh
7,"CC(C)Oc1ccc2cc(C(=O)N[C@@H]3C4CCN(CC4)C3(C)C)sc2c1 [(R)-47, (R)—N-(2,2-dimethylquinuclidin-3-yl)-6-isopropoxybenzo[b]thiophene-2-carboxamide hydrochloride]",1 % ACh
8,"CC1(C)[C@H](NC(=O)c2cc3ccc(N)cc3s2)C2CCN1CC2 [(R)-49, (R)-6-amino-N-(2,2-dimethylquinuclidin-3-yl)benzo[b]thiophene-2-carboxamide hydrochloride]",576 % ACh
9,"CC1(C)[C@H](NC(=O)c2cc3ccc(C4CCOCC4)cc3s2)C2CCN1CC2 [(R)-50, (R)—N-(2,2-dimethylquinuclidin-3-yl)-6-(tetrahydro-2H-pyran-4-yl)benzo[b]thiophene-2-carboxamide hydrochloride]",0 % ACh
10,"Cl.O=C(N[C@@H]1C2CCN(CC2)C12CC2)c1cc2c(cn1)OCCO2 [(R)-76, (R)—N-(1′-azaspiro[cyclopropane-1,2′-bicyclo[2.2.2]octan]-3′-yl)-2,3-dihydro-[1,4]dioxino[2,3-c]pyridine-7-carboxamide hydrochloride]",129 % ACh
11,"O=C(N[C@@H]1C2CCN(CC2)C12CC2)c1cnn2ncccc12 [(R)-80, (R)—N-(1′-azaspiro[cyclopropane-1,2′-bicyclo[2.2.2]octan]-3′-yl)pyrazolo[1,5-b]pyridazine-3-carboxamide hydrochloride]",0 % ACh
12,"O=C(N[C@@H]1C2CCN(CC2)C12CC2)c1cc2cccnc2s1 [(R)-81, (R)—N-(1′-azaspiro[cyclopropane-1,2′-bicyclo[2.2.2]octan]-3′-yl)thieno[2,3-b]pyridine-2-carboxamide hydrochloride]",449 % ACh
13,"O=C(N[C@@H]1C2CCN(CC2)C12CC2)c1nc2ccccc2s1 [(R)-82, (R)—N-(1′-azaspiro[cyclopropane-1,2′-bicyclo[2.2.2]octan]-3′-yl)benzo[d]thiazole-2-carboxamide hydrochloride]",239 % ACh
14,"Cc1nc2cc(C(=O)N[C@@H]3C4CCN(CC4)C34CC4)ccc2s1 [(R)-87, (R)-2-methyl-N-(1′-azaspiro[cyclopropane-1,2′-bicyclo[2.2.2]octan]-3′-yl)benzo[d]thiazole-5-carboxamide hydrochloride]",341 % ACh
15,"Cc1nc2ccc(C(=O)N[C@@H]3C4CCN(CC4)C34CC4)cc2s1 [(R)-88, (R)-2-methyl-N-(1′-azaspiro[cyclopropane-1,2′-bicyclo[2.2.2]octan]-3′-yl)benzo[d]thiazole-6-carboxamide hydrochloride]",133 % ACh
16,"O=C(N[C@@H]1C2CCN(CC2)C12CC2)c1cnc2occc2c1 [(R)-89, (R)—N-(1′-azaspiro[cyclopropane-1,2′-bicyclo[2.2.2]octan]-3′-yl)furo[2,3-b]pyridine-5-carboxamide hydrochloride]",0 % ACh
17,"O=C(N[C@@H]1C2CCN(CC2)C12CC2)c1ccc2occc2n1 [(R)-90, (R)—N-(1′-azaspiro[cyclopropane-1,2′-bicyclo[2.2.2]octan]-3′-yl)furo[3,2-b]pyridine-5-carboxamide hydrochloride]",3 % ACh
18,"Cc1coc2ccc(C(=O)N[C@@H]3C4CCN(CC4)C34CC4)cc12 [(R)-93, (R)-3-methyl-N-(1′-azaspiro[cyclopropane-1,2′-bicyclo[2.2.2]octan]-3′-yl)benzofuran-5-carboxamide hydrochloride]",516 % ACh
19,"Cn1cnc2ccc(C(=O)N[C@@H]3C4CCN(CC4)C34CC4)cc21 [(R)-96, (R)-1-methyl-N-(1′-azaspiro[cyclopropane-1,2′-bicyclo[2.2.2]octan]-3′-yl)-1H-benzo[d]imidazole-6-carboxamide hydrochloride]",0 % ACh
20,"O=C(N[C@@H]1C2CCN(CC2)C12CC2)c1cc2ccc(-n3ccnn3)cc2s1 [(R)-98, (R)—N-(1′-azaspiro[cyclopropane-1,2′-bicyclo[2.2.2]octan]-3′-yl)-6-(1H-1,2,3-triazol-1-yl)benzo[b]thiophene-2-carboxamide hydrochloride]",3 % ACh
21,"O=C(N[C@@H]1C2CCN(CC2)C12CC2)c1cc2ccc(N3CCC(F)(F)CC3)cc2s1 [(R)-100, (R)-6-(4,4-difluoropiperidin-1-yl)-N-(1′-azaspiro[cyclopropane-1,2′-bicyclo[2.2.2]octan]-3′-yl)benzo[b]thiophene-2-carboxamide hydrochloride]",1 % ACh
22,"CC(C)Oc1ccc2cc(C(=O)N[C@@H]3C4CCN(CC4)C34CC4)sc2c1 [(R)-102, (R)-6-isopropoxy-N-(1′-azaspiro[cyclopropane-1,2′-bicyclo[2.2.2]octan]-3′-yl)benzo[b]thiophene-2-carboxamide hydrochloride]",1 % ACh
23,"CS(=O)(=O)c1ccc2cc(C(=O)N[C@@H]3C4CCN(CC4)C34CC4)sc2c1 [(R)-103, (R)-6-(methylsulfonyl)-N-(1′-azaspiro[cyclopropane-1,2′-bicyclo[2.2.2]octan]-3′-yl)benzo[b]thiophene-2-carboxamide hydrochloride]",2 % ACh
24,"N#Cc1ccc2cc(C(=O)N[C@@H]3C4CCN(CC4)C34CC4)sc2c1 [(R)-104, (R)-6-cyano-N-(1′-azaspiro[cyclopropane-1,2′-bicyclo[2.2.2]octan]-3′-yl)benzo[b]thiophene-2-carboxamide hydrochloride]",20 % ACh
25,"COc1ccc2cc(C(=O)N[C@@H]3C4CCN(CC4)C3(C)C)sc2c1Cl [(R)-112, (R)-7-chloro-N-(2,2-dimethylquinuclidin-3-yl)-6-methoxybenzo[b]thiophene-2-carboxamide hydrochloride]",234 % ACh
26,"CC1(C)[C@H](NC(=O)c2cc3cccc(C#N)c3s2)C2CCN1CC2 [(R)-115, (R)-7-cyano-N-(2,2-dimethylquinuclidin-3-yl)benzo[b]thiophene-2-carboxamide hydrochloride]",215 % ACh
27,"Nc1ncc2cc(C(=O)N[C@@H]3C4CCN(CC4)C34CC4)sc2n1 [(R)-149, (R)-2-amino-N-(1′-azaspiro[cyclopropane-1,2′-bicyclo[2.2.2]octan]-3′-yl) thieno[2,3-d]pyrimidine-6-carboxamide hydrochloride]",195 % ACh
28,"O=C(N[C@@H]1C2CCN(CC2)C12CC2)c1cc2ccc(F)c(C(F)(F)F)c2s1 [(R)-153, (R)-6-fluoro-N-(1′-azaspiro[cyclopropane-1,2′-bicyclo[2.2.2]octan]-3′-yl)-7-(trifluoromethyl)benzo[b]thiophene-2-carboxamide hydrochloride]",114 % ACh
29,"O=C(N[C@@H]1C2CCN(CC2)C12CC2)c1cc2cccc(Cl)c2o1 [(R)-164, (R)-7-chloro-N-(1′-azaspiro[cyclopropane-1,2′-bicyclo[2.2.2]octan]-3′-yl)benzofuran-2-carboxamide hydrochloride]",266 % ACh
